Test results taken from patent publication US20150105252A1, “SUBSTITUTED PYRAZOLES AS HERBICIDES” (E I DU PONT DE NEMOURS AND COMPANY, priority 2013, published 2015).

Legend:
Assay in all cases: Test C postemergence
oat, wild = format: in vivo, Avena fatua; conditions: for Plant response rating (scale of 0 to 100 where 0 is no effect and 100 is complete control), Oat, Wild: Postemergence, 31 g ai/ha, visually evaluated after 13 to 15 days; for Oat, Wild plant response rating / Plant response rating, Oat, Wild: postemergence; for Oat, Wild plant response rating: 62 g ai/ha, scale 0 to 100
Procedure, shortened: (§1)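 Visual control ratings on a 0–100 scale (100 = complete control) made against untreated controls after 13 to 15 days in greenhouse. Compounds applied in surfactant-containing solvent mixture, either preemergence to loam/sand-sown seeds or postemergence to 1- to 4-leaf plants (2–18 cm) in peat medium.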

galium = format: in vivo, Galium aparine; conditions: for Plant response rating (scale of 0 to 100 where 0 is no effect and 100 is complete control), Galium: Postemergence, 31 g ai/ha, visually evaluated after 13 to 15 days; for Galium plant response rating / Plant response rating, Galium: postemergence; for Galium plant response rating: 62 g ai/ha, scale 0 to 100
Procedure, shortened: as §1

velvetleaf = format: in vivo, Abutilon theophrasti; conditions: postemergence, 250 g ai/ha; scale 0 to 100 (0 no effect, 100 complete control)
Procedure, shortened: as §1

waterhemp = format: in vivo, Amaranthus rudis; conditions: postemergence, 250 g ai/ha; scale 0 to 100 (0 no effect, 100 complete control)
Procedure, shortened: as §1

chickweed = format: in vivo, Stellaria media; conditions: for Plant response rating (scale of 0 to 100 where 0 is no effect and 100 is complete control), Chickweed: Postemergence, 31 g ai/ha, visually evaluated after 13 to 15 days; for Chickweed plant response rating / Plant response rating, Chickweed: postemergence; for Chickweed plant response rating: 62 g ai/ha, scale 0 to 100
Procedure, shortened: as §1

oilseed rape = format: in vivo, Brassica napus; conditions: postemergence; for Oilseed Rape plant response rating: 62 g ai/ha, scale 0 to 100
Procedure, shortened: as §1

pigweed = format: in vivo, Amaranthus retroflexus; conditions: postemergence; for Pigweed plant response rating: 62 g ai/ha, scale 0 to 100
Procedure, shortened: as §1

ryegrass, Italian = format: in vivo, Lolium multiflorum; conditions: postemergence
Procedure, shortened: as §1

kochia = format: in vivo, Kochia scoparia; conditions: for Plant response rating (scale of 0 to 100 where 0 is no effect and 100 is complete control), Kochia: Postemergence, 31 g ai/ha, visually evaluated after 13 to 15 days; for Kochia plant response rating / Plant response rating, Kochia: postemergence; for Kochia plant response rating: 62 g ai/ha, scale 0 to 100
Procedure, shortened: as §1

johnsongrass = format: in vivo, Sorghum halepense; conditions: for Plant response rating (scale of 0 to 100 where 0 is no effect and 100 is complete control), Johnsongrass: Postemergence, 31 g ai/ha, visually evaluated after 13 to 15 days; for Johnsongrass plant response rating / Plant response rating, Johnsongrass: postemergence; for Johnsongrass plant response rating: 62 g ai/ha, scale 0 to 100
Procedure, shortened: as §1

blackgrass = format: in vivo, Alopecurus myosuroides; conditions: for Plant response rating (scale of 0 to 100 where 0 is no effect and 100 is complete control), Blackgrass: Postemergence, 31 g ai/ha, visually evaluated after 13 to 15 days; for Blackgrass plant response rating / Plant response rating, Blackgrass: postemergence; for Blackgrass plant response rating: 62 g ai/ha, scale 0 to 100
Procedure, shortened: as §1

corn = format: in vivo, Zea mays; conditions: for Plant response rating (scale of 0 to 100 where 0 is no effect and 100 is complete control), Corn: Postemergence, 31 g ai/ha, visually evaluated after 13 to 15 days; for Corn plant response rating / Plant response rating, Corn: postemergence; for Corn plant response rating: 62 g ai/ha, scale 0 to 100
Procedure, shortened: as §1

morningglory = format: in vivo, Ipomoea coccinea; conditions: for Plant response rating (scale of 0 to 100 where 0 is no effect and 100 is complete control), Morningglory: Postemergence, 31 g ai/ha, visually evaluated after 13 to 15 days; for Morningglory plant response rating / Plant response rating, Morningglory: postemergence; for Morningglory plant response rating: 62 g ai/ha, scale 0 to 100
Procedure, shortened: as §1

ragweed = format: in vivo, Ambrosia elation; conditions: postemergence
Procedure, shortened: as §1

crabgrass, large = format: in vivo, Digitaria sanguinalis; conditions: for Plant response rating (scale of 0 to 100 where 0 is no effect and 100 is complete control), Crabgrass, Large: Postemergence, 31 g ai/ha, visually evaluated after 13 to 15 days; for Crabgrass, Large plant response rating / Plant response rating, Crabgrass, Large: postemergence; for Crabgrass, Large plant response rating: 62 g ai/ha, scale 0 to 100
Procedure, shortened: as §1

soybean = format: in vivo, Glycine max; conditions: postemergence; for Plant response rating, Soybean: 250 g ai/ha, scale 0 to 100 (0 no effect, 100 complete control); for Soybean plant response rating: 125 g ai/ha, scale 0 to 100, 0 no effect, 100 complete control
Procedure, shortened: as §1

foxtail, giant = format: in vivo, Setaria faberii; conditions: for Plant response rating (scale of 0 to 100 where 0 is no effect and 100 is complete control), Foxtail, Giant: Postemergence, 31 g ai/ha, visually evaluated after 13 to 15 days; for Foxtail, Giant plant response rating / Plant response rating, Foxtail, Giant: postemergence; for Foxtail, Giant plant response rating: 62 g ai/ha, scale 0 to 100
Procedure, shortened: as §1

nutsedge, yellow = format: in vivo, Cyperus esculentus; conditions: for Plant response rating (scale of 0 to 100 where 0 is no effect and 100 is complete control), Nutsedge, Yellow: Postemergence, 31 g ai/ha, visually evaluated after 13 to 15 days; for Nutsedge, Yellow plant response rating / Plant response rating, Nutsedge, Yellow: postemergence; for Nutsedge, Yellow plant response rating: 62 g ai/ha, scale 0 to 100
Procedure, shortened: as §1

[1] = 250 g ai/ha, scale 0 to 100 (0 no effect, 100 complete control)
[2] = 125 g ai/ha, scale 0 to 100, 0 no effect, 100 complete control

SMILES: CCc1cc(C(=O)NCC2CC2)nn1Cc1ccnc(C(F)(F)F)c1 [Compound 199]
- Plant response rating (scale of 0 to 100 where 0 is no effect and 100 is complete control), Oat, Wild (oat, wild): 5
- Oat, Wild plant response rating (oat, wild): 10
- Plant response rating, Oat, Wild (oat, wild; [1]): 80
- Plant response rating, Oat, Wild (oat, wild; [2]): 30
- Plant response rating (scale of 0 to 100 where 0 is no effect and 100 is complete control), Galium (galium): 60
- Galium plant response rating (galium): 70
- Plant response rating, Galium (galium; [1]): 90
- Plant response rating, Galium (galium; [2]): 80
- Plant response rating, Velvetleaf (velvetleaf): 60
- Plant response rating, Waterhemp (waterhemp): 75
- Plant response rating (scale of 0 to 100 where 0 is no effect and 100 is complete control), Chickweed (chickweed): 70
- Chickweed plant response rating (chickweed): 60
- Plant response rating, Chickweed (chickweed; [1]): 80
- Plant response rating, Chickweed (chickweed; [2]): 80
- Oilseed Rape plant response rating (oilseed rape): 45
- Plant response rating, Oilseed Rape (oilseed rape; [1]): 65
- Plant response rating, Oilseed Rape (oilseed rape; [2]): 55
- Pigweed plant response rating (pigweed): 60
- Plant response rating, Pigweed (pigweed; [1]): 90
- Plant response rating, Pigweed (pigweed; [2]): 75
- Plant response rating, Ryegrass, Italian (ryegrass, Italian; [1]): 10
- Plant response rating, Ryegrass, Italian (ryegrass, Italian; [2]): 10
- Plant response rating (scale of 0 to 100 where 0 is no effect and 100 is complete control), Kochia (kochia): 80
- Kochia plant response rating (kochia): 85
- Plant response rating, Kochia (kochia; [1]): 95
- Plant response rating, Kochia (kochia; [2]): 90
- Plant response rating (scale of 0 to 100 where 0 is no effect and 100 is complete control), Johnsongrass (johnsongrass): 5
- Johnsongrass plant response rating (johnsongrass): 5
- Plant response rating, Johnsongrass (johnsongrass; [1]): 55
- Plant response rating, Johnsongrass (johnsongrass; [2]): 40
- Plant response rating (scale of 0 to 100 where 0 is no effect and 100 is complete control), Blackgrass (blackgrass): 0
- Blackgrass plant response rating (blackgrass): 10
- Plant response rating, Blackgrass (blackgrass; [1]): 30
- Plant response rating, Blackgrass (blackgrass; [2]): 10
- Plant response rating (scale of 0 to 100 where 0 is no effect and 100 is complete control), Corn (corn): 5
- Corn plant response rating (corn): 10
- Plant response rating, Corn (corn; [1]): 65
- Plant response rating, Corn (corn; [2]): 85
- Plant response rating (scale of 0 to 100 where 0 is no effect and 100 is complete control), Morningglory (morningglory): 30
- Morningglory plant response rating (morningglory): 50
- Plant response rating, Morningglory (morningglory; [1]): 85
- Plant response rating, Morningglory (morningglory; [2]): 60
- Plant response rating, Ragweed (ragweed; [1]): 75
- Plant response rating, Ragweed (ragweed; [2]): 20
- Plant response rating (scale of 0 to 100 where 0 is no effect and 100 is complete control), Crabgrass, Large (crabgrass, large): 10
- Crabgrass, Large plant response rating (crabgrass, large): 10
- Plant response rating, Crabgrass, Large (crabgrass, large; [1]): 60
- Plant response rating, Crabgrass, Large (crabgrass, large; [2]): 40
- Plant response rating, Soybean (soybean): 95
- Soybean plant response rating (soybean): 75
- Plant response rating (scale of 0 to 100 where 0 is no effect and 100 is complete control), Foxtail, Giant (foxtail, giant): 10
- Foxtail, Giant plant response rating (foxtail, giant): 10
- Plant response rating, Foxtail, Giant (foxtail, giant; [1]): 50
- Plant response rating, Foxtail, Giant (foxtail, giant; [2]): 50
- Plant response rating (scale of 0 to 100 where 0 is no effect and 100 is complete control), Nutsedge, Yellow (nutsedge, yellow): 5
- Nutsedge, Yellow plant response rating (nutsedge, yellow): 10
- Plant response rating, Nutsedge, Yellow (nutsedge, yellow; [1]): 20
- Plant response rating, Nutsedge, Yellow (nutsedge, yellow; [2]): 45

SMILES: CCc1cc(C(=O)NC2CC2)nn1Cc1ccnc(OCC(F)(F)F)c1 [Compound 200]
- Plant response rating (scale of 0 to 100 where 0 is no effect and 100 is complete control), Oat, Wild (oat, wild): 5
- Oat, Wild plant response rating (oat, wild): 10
- Plant response rating, Oat, Wild (oat, wild; [1]): 20
- Plant response rating, Oat, Wild (oat, wild; [2]): 10
- Plant response rating (scale of 0 to 100 where 0 is no effect and 100 is complete control), Galium (galium): 50
- Galium plant response rating (galium): 50
- Plant response rating, Galium (galium; [1]): 75
- Plant response rating, Galium (galium; [2]): 75
- Plant response rating, Velvetleaf (velvetleaf): 45
- Plant response rating, Waterhemp (waterhemp): 85
- Plant response rating (scale of 0 to 100 where 0 is no effect and 100 is complete control), Chickweed (chickweed): 75
- Chickweed plant response rating (chickweed): 75
- Plant response rating, Chickweed (chickweed; [1]): 90
- Plant response rating, Chickweed (chickweed; [2]): 90
- Oilseed Rape plant response rating (oilseed rape): 30
- Plant response rating, Oilseed Rape (oilseed rape; [1]): 60
- Plant response rating, Oilseed Rape (oilseed rape; [2]): 60
- Pigweed plant response rating (pigweed): 60
- Plant response rating, Pigweed (pigweed; [1]): 80
- Plant response rating, Pigweed (pigweed; [2]): 75
- Plant response rating, Ryegrass, Italian (ryegrass, Italian; [1]): 15
- Plant response rating, Ryegrass, Italian (ryegrass, Italian; [2]): 15
- Plant response rating (scale of 0 to 100 where 0 is no effect and 100 is complete control), Kochia (kochia): 90
- Kochia plant response rating (kochia): 90
- Plant response rating, Kochia (kochia; [1]): 90
- Plant response rating, Kochia (kochia; [2]): 90
- Plant response rating (scale of 0 to 100 where 0 is no effect and 100 is complete control), Johnsongrass (johnsongrass): 10
- Johnsongrass plant response rating (johnsongrass): 10
- Plant response rating, Johnsongrass (johnsongrass; [1]): 20
- Plant response rating, Johnsongrass (johnsongrass; [2]): 10
- Plant response rating (scale of 0 to 100 where 0 is no effect and 100 is complete control), Blackgrass (blackgrass): 5
- Blackgrass plant response rating (blackgrass): 10
- Plant response rating, Blackgrass (blackgrass; [1]): 15
- Plant response rating, Blackgrass (blackgrass; [2]): 15
- Plant response rating (scale of 0 to 100 where 0 is no effect and 100 is complete control), Corn (corn): 5
- Corn plant response rating (corn): 5
- Plant response rating, Corn (corn; [1]): 20
- Plant response rating, Corn (corn; [2]): 10
- Plant response rating (scale of 0 to 100 where 0 is no effect and 100 is complete control), Morningglory (morningglory): 65
- Morningglory plant response rating (morningglory): 65
- Plant response rating, Morningglory (morningglory; [1]): 75
- Plant response rating, Morningglory (morningglory; [2]): 75
- Plant response rating, Ragweed (ragweed; [1]): 45
- Plant response rating, Ragweed (ragweed; [2]): 45
- Plant response rating (scale of 0 to 100 where 0 is no effect and 100 is complete control), Crabgrass, Large (crabgrass, large): 10
- Crabgrass, Large plant response rating (crabgrass, large): 10
- Plant response rating, Crabgrass, Large (crabgrass, large; [1]): 25
- Plant response rating, Crabgrass, Large (crabgrass, large; [2]): 10
- Plant response rating, Soybean (soybean): 90
- Soybean plant response rating (soybean): 90
- Plant response rating (scale of 0 to 100 where 0 is no effect and 100 is complete control), Foxtail, Giant (foxtail, giant): 5
- Foxtail, Giant plant response rating (foxtail, giant): 10
- Plant response rating, Foxtail, Giant (foxtail, giant; [1]): 15
- Plant response rating, Foxtail, Giant (foxtail, giant; [2]): 15
- Plant response rating (scale of 0 to 100 where 0 is no effect and 100 is complete control), Nutsedge, Yellow (nutsedge, yellow): 0
- Nutsedge, Yellow plant response rating (nutsedge, yellow): 0
- Plant response rating, Nutsedge, Yellow (nutsedge, yellow; [1]): 10
- Plant response rating, Nutsedge, Yellow (nutsedge, yellow; [2]): 5
